Laboratory results published in the NIST ThermoML archive (doi:10.1021/je200811n).

Conditions: Hot wire method

F/C=C/C(F)(F)F [trans-1,3,3,3-tetrafluoropropene]
Liquid
Conditions	thermal conductivity [W/m/K]
203.15 K	0.1101
213.15 K	0.1064
223.15 K	0.1024
233.15 K	0.0984
243.15 K	0.09448
253.15 K	0.09063

Conditions	thermal conductivity [W/m/K]
203.18 K, 711 kPa, Liquid	0.1106
203.18 K, 5522 kPa, Liquid	0.1124
203.18 K, 10459 kPa, Liquid	0.114
203.18 K, 15332 kPa, Liquid	0.1155
203.18 K, 20782 kPa, Liquid	0.1173
203.28 K, 739 kPa, Liquid	0.1103
203.28 K, 5531 kPa, Liquid	0.112
203.28 K, 10473 kPa, Liquid	0.1137
203.29 K, 15354 kPa, Liquid	0.1152
203.29 K, 20780 kPa, Liquid	0.1169
203.54 K, 5526 kPa, Liquid	0.1122
203.54 K, 10469 kPa, Liquid	0.1137
203.55 K, 747 kPa, Liquid	0.1104
203.55 K, 15371 kPa, Liquid	0.1153
203.56 K, 20781 kPa, Liquid	0.1169
203.67 K, 5527 kPa, Liquid	0.1118
203.67 K, 10483 kPa, Liquid	0.1135
203.67 K, 15392 kPa, Liquid	0.1149
203.67 K, 20820 kPa, Liquid	0.1167
203.68 K, 729 kPa, Liquid	0.11
203.94 K, 20822 kPa, Liquid	0.1168
203.95 K, 15357 kPa, Liquid	0.1149
203.96 K, 5536 kPa, Liquid	0.1119
203.96 K, 10470 kPa, Liquid	0.1136
203.97 K, 733 kPa, Liquid	0.1102
204.1 K, 15343 kPa, Liquid	0.1146
204.1 K, 20832 kPa, Liquid	0.1164
204.11 K, 5538 kPa, Liquid	0.1115
204.11 K, 10474 kPa, Liquid	0.1133
204.12 K, 727 kPa, Liquid	0.1098
204.38 K, 20839 kPa, Liquid	0.1166
204.39 K, 15379 kPa, Liquid	0.1146
204.4 K, 10465 kPa, Liquid	0.1133
204.41 K, 5532 kPa, Liquid	0.1118
204.42 K, 727 kPa, Liquid	0.11
204.56 K, 15381 kPa, Liquid	0.1145
204.56 K, 20849 kPa, Liquid	0.1163
204.57 K, 10473 kPa, Liquid	0.113
204.59 K, 5544 kPa, Liquid	0.1114
204.62 K, 736 kPa, Liquid	0.1094
204.85 K, 20860 kPa, Liquid	0.1164
204.87 K, 15409 kPa, Liquid	0.1147
204.88 K, 10437 kPa, Liquid	0.1131
204.9 K, 5524 kPa, Liquid	0.1115
204.92 K, 744 kPa, Liquid	0.1095
205.05 K, 20874 kPa, Liquid	0.116
205.06 K, 15407 kPa, Liquid	0.1143
205.09 K, 10456 kPa, Liquid	0.1127
205.1 K, 5515 kPa, Liquid	0.1111
205.13 K, 719 kPa, Liquid	0.1088
221.66 K, 461 kPa, Liquid	0.1031
221.67 K, 5469 kPa, Liquid	0.1047
221.74 K, 21449 kPa, Liquid	0.1111
221.76 K, 463 kPa, Liquid	0.1036
221.76 K, 5431 kPa, Liquid	0.1048
221.76 K, 10410 kPa, Liquid	0.1068
221.76 K, 15721 kPa, Liquid	0.1089
221.84 K, 21448 kPa, Liquid	0.1108
221.86 K, 15726 kPa, Liquid	0.1087
221.88 K, 10573 kPa, Liquid	0.1069
222.06 K, 464 kPa, Liquid	0.1022
222.06 K, 10416 kPa, Liquid	0.1071
222.08 K, 5404 kPa, Liquid	0.1049
222.12 K, 21441 kPa, Liquid	0.1109
222.15 K, 15723 kPa, Liquid	0.1088
222.18 K, 10370 kPa, Liquid	0.1067
222.19 K, 465 kPa, Liquid	0.103
222.19 K, 5436 kPa, Liquid	0.1046
222.24 K, 21442 kPa, Liquid	0.1106
222.27 K, 15726 kPa, Liquid	0.1085
222.3 K, 10660 kPa, Liquid	0.1066
222.49 K, 10407 kPa, Liquid	0.1072
222.5 K, 470 kPa, Liquid	0.1023
222.5 K, 5467 kPa, Liquid	0.105
222.5 K, 10293 kPa, Liquid	0.1066
222.54 K, 21423 kPa, Liquid	0.1106
222.57 K, 15731 kPa, Liquid	0.1085
222.64 K, 10411 kPa, Liquid	0.1065
222.65 K, 468 kPa, Liquid	0.1027
222.65 K, 5467 kPa, Liquid	0.1046
222.68 K, 21432 kPa, Liquid	0.1103
222.72 K, 15730 kPa, Liquid	0.1082
222.97 K, 10413 kPa, Liquid	0.1065
222.99 K, 5478 kPa, Liquid	0.1038
223 K, 470 kPa, Liquid	0.1026
223 K, 21446 kPa, Liquid	0.1104
223.04 K, 15727 kPa, Liquid	0.1083
223.15 K, 10394 kPa, Liquid	0.1061
223.16 K, 5476 kPa, Liquid	0.1042
223.18 K, 469 kPa, Liquid	0.1021
223.18 K, 21443 kPa, Liquid	0.11
223.22 K, 15728 kPa, Liquid	0.108
223.49 K, 10439 kPa, Liquid	0.1055
223.5 K, 21421 kPa, Liquid	0.1101
223.52 K, 5475 kPa, Liquid	0.105
223.55 K, 15715 kPa, Liquid	0.1081
223.7 K, 10408 kPa, Liquid	0.1058
223.71 K, 21432 kPa, Liquid	0.1098
223.73 K, 5485 kPa, Liquid	0.104
223.75 K, 474 kPa, Liquid	0.1022
223.76 K, 15729 kPa, Liquid	0.1077
241.49 K, 10379 kPa, Liquid	0.09991
241.51 K, 15379 kPa, Liquid	0.1018
241.52 K, 20702 kPa, Liquid	0.1042
241.53 K, 5318 kPa, Liquid	0.09771
241.56 K, 614 kPa, Liquid	0.09561
241.59 K, 10369 kPa, Liquid	0.0996
241.6 K, 15368 kPa, Liquid	0.1014
241.61 K, 20709 kPa, Liquid	0.1038
241.62 K, 5325 kPa, Liquid	0.09743
241.66 K, 603 kPa, Liquid	0.09528
241.9 K, 10355 kPa, Liquid	0.09967
241.91 K, 15386 kPa, Liquid	0.1016
241.91 K, 20710 kPa, Liquid	0.1039
241.94 K, 5328 kPa, Liquid	0.0974
242 K, 586 kPa, Liquid	0.09528
242.02 K, 10375 kPa, Liquid	0.09936
242.03 K, 15367 kPa, Liquid	0.1014
242.03 K, 20714 kPa, Liquid	0.1037
242.06 K, 5339 kPa, Liquid	0.097
242.11 K, 624 kPa, Liquid	0.09501
242.35 K, 15378 kPa, Liquid	0.1015
242.36 K, 10375 kPa, Liquid	0.09945
242.36 K, 20709 kPa, Liquid	0.1035
242.41 K, 5308 kPa, Liquid	0.09704
242.47 K, 619 kPa, Liquid	0.095
242.5 K, 10391 kPa, Liquid	0.09913
242.5 K, 15372 kPa, Liquid	0.1012
242.5 K, 20712 kPa, Liquid	0.1034
242.56 K, 5308 kPa, Liquid	0.09697
242.62 K, 642 kPa, Liquid	0.09474
242.85 K, 10385 kPa, Liquid	0.09922
242.85 K, 20701 kPa, Liquid	0.1032
242.86 K, 15376 kPa, Liquid	0.1011
242.92 K, 5304 kPa, Liquid	0.09701
243 K, 622 kPa, Liquid	0.09406
243.02 K, 15383 kPa, Liquid	0.1009
243.02 K, 20695 kPa, Liquid	0.1029
243.04 K, 10395 kPa, Liquid	0.09886
243.1 K, 5316 kPa, Liquid	0.09673
243.17 K, 615 kPa, Liquid	0.09437
243.39 K, 20699 kPa, Liquid	0.1032
243.4 K, 15385 kPa, Liquid	0.1011
243.42 K, 10393 kPa, Liquid	0.09892
243.49 K, 5327 kPa, Liquid	0.09667
243.57 K, 643 kPa, Liquid	0.09442
243.59 K, 20693 kPa, Liquid	0.1027
243.6 K, 15397 kPa, Liquid	0.1006
243.63 K, 10402 kPa, Liquid	0.09852
243.71 K, 5317 kPa, Liquid	0.09606
243.79 K, 649 kPa, Liquid	0.09402
251.51 K, 42 kPa, Gas	0.01026
251.52 K, 63 kPa, Gas	0.01037
251.54 K, 86 kPa, Gas	0.01039
251.74 K, 41 kPa, Gas	0.01015
251.76 K, 63 kPa, Gas	0.01019
251.77 K, 86 kPa, Gas	0.01024
251.78 K, 87 kPa, Gas	0.01029
251.97 K, 87 kPa, Gas	0.01006
252 K, 41 kPa, Gas	0.01005
252 K, 62 kPa, Gas	0.01009
252 K, 88 kPa, Gas	0.01003
252.01 K, 86 kPa, Gas	0.01018
252.02 K, 63 kPa, Gas	0.01
252.03 K, 87 kPa, Gas	0.01018
252.31 K, 87 kPa, Gas	0.01004
252.33 K, 88 kPa, Gas	0.01011
252.36 K, 63 kPa, Gas	0.01014
252.65 K, 86 kPa, Gas	0.01016
252.67 K, 87 kPa, Gas	0.01008
252.73 K, 63 kPa, Gas	0.01019
253.03 K, 86 kPa, Gas	0.01015
253.07 K, 87 kPa, Gas	0.01011
253.13 K, 63 kPa, Gas	0.01017
253.46 K, 86 kPa, Gas	0.01017
253.48 K, 87 kPa, Gas	0.01016
253.56 K, 62 kPa, Gas	0.01022
261.25 K, 97 kPa, Gas	0.0104
261.43 K, 21238 kPa, Liquid	0.09804
261.44 K, 15456 kPa, Liquid	0.09523
261.45 K, 97 kPa, Gas	0.01036
261.47 K, 10413 kPa, Liquid	0.09305
261.48 K, 489 kPa, Liquid	0.08806
261.5 K, 80 kPa, Gas	0.01109
261.5 K, 5306 kPa, Liquid	0.09055
261.51 K, 21243 kPa, Liquid	0.09768
261.52 K, 15449 kPa, Liquid	0.09503
261.55 K, 97 kPa, Gas	0.01112
261.55 K, 10410 kPa, Liquid	0.09274
261.56 K, 107 kPa, Gas	0.0112
261.56 K, 489 kPa, Liquid	0.0878
261.57 K, 122 kPa, Gas	0.01124
261.58 K, 5302 kPa, Liquid	0.09026
261.64 K, 98 kPa, Gas	0.01034
261.73 K, 80 kPa, Gas	0.01096
261.77 K, 97 kPa, Gas	0.01098
261.78 K, 105 kPa, Gas	0.01104
261.79 K, 120 kPa, Gas	0.01105
261.83 K, 21233 kPa, Liquid	0.09783
261.85 K, 15453 kPa, Liquid	0.09507
261.86 K, 98 kPa, Gas	0.01037
261.88 K, 10404 kPa, Liquid	0.09272
261.91 K, 489 kPa, Liquid	0.08776
261.93 K, 5298 kPa, Liquid	0.09023
261.93 K, 21227 kPa, Liquid	0.09748
261.96 K, 80 kPa, Gas	0.01086
261.96 K, 128 kPa, Gas	0.01078
261.96 K, 15453 kPa, Liquid	0.09468
261.97 K, 82 kPa, Gas	0.01083
261.97 K, 112 kPa, Gas	0.01074
261.98 K, 99 kPa, Gas	0.01077
262 K, 98 kPa, Gas	0.01084
262 K, 10412 kPa, Liquid	0.0925
262.01 K, 97 kPa, Gas	0.0109
262.02 K, 103 kPa, Gas	0.01092
262.03 K, 118 kPa, Gas	0.01094
262.03 K, 488 kPa, Liquid	0.08756
262.04 K, 5301 kPa, Liquid	0.08998
262.09 K, 98 kPa, Gas	0.01037
262.29 K, 109 kPa, Gas	0.01076
262.29 K, 21229 kPa, Liquid	0.09748
262.3 K, 81 kPa, Gas	0.01082
262.3 K, 98 kPa, Gas	0.01082
